Results taken from PubChem BioAssay AID179 (DTP/NCI, 2004).
pEC50, pIC50: −log10 of the molar value. Where “and” joins values, the source holds several entries; their conditions need not be identical. Equal values may be shown once. Calls of active or inactive are those of the source.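 The calls were made as follows: active = compounds giving half or more protection of infected cells from virus-caused growth loss, again on retest; inactive = the rest.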 Where a SMILES comes first, the peptide text is derived from it. [ ]: non-standard residue; d: D form. The star is where a group is joined. ξ: configuration not given here. Chg = N[CH](C(=O)O)C1CCCCC1; ξF = NC(Cc1ccccc1)C(=O)O; Cbz = O=C(OCc1ccccc1)*; Aib = CC(C)(N)C(=O)O; OBn = c1ccc(CO*)cc1

System: CEM cells HIV-1 protection, formazan growth assay
Test: NCI AIDS Antiviral Assay
Conditions: for pIC50: measured here: growth of uninfected CEM cells
Summary of the method: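 Human CEM cells, uninfected and HIV-1-infected, exposed to five drug concentrations; growth measured by soluble formazan assay and scored as percent protection from infection, with protecting compounds retested.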

Molecule	pEC50	pIC50	outcome
COc1cc(C(C[N+](=O)[O-])SC(C)=O)ccc1OCc1ccccc1 (centres undefined)	< 3.70	5.71	
COC(=O)C1CCC(=O)N1C(c1ccc(OC)cc1)c1cc(OC)c(OC)c(OC)c1 (centres undefined)	< 5.70	7.00	
Cc1c(O)c2ccccc2c2c1sc(NCCO)[n+]2C	< 4.10	4.39	
CC12CCC(CC1(Cl)Cl)C2 (centres undefined)	< 3.70	< 3.70	
C[S+](C)(=O)CCCS(=O)(=O)[O-]	< 3.70	< 3.70	
CCC(C)C(NC(=O)C(CCCN=C(N)N)NC(=O)C(CC(N)=O)NC(=O)C(Cc1cnc[nH]1)NC(=O)C(N)CC(C)C)C(=O)NC(C(=O)NC(CC(C)C)C(=O)NC(C(=O)NC(Cc1cnc[nH]1)C(=O)O)C(C)O)C(C)CC (centres undefined) (H-LHNRIILTH-OH; configuration not given here)	< 4.35	< 4.35	
Clc1ccccc1C1=NN(c2ccccc2)C2c3ccccc3OCC12 (centres undefined)	< 4.14	< 4.14	
c1ccc(N=C2C(=Nc3ccccc3)N(C3CCCCC3)C(=NC3CCCCC3)N2c2ccccc2)cc1	< 3.70	< 3.70	
O=C(O)c1ccc2c(O)c(O)ccc2c1	< 4.11	5.22	
Cc1ccc(NC(=O)COC(=O)c2cccc3c(=O)c4ccccc4[nH]c23)cc1			inactive
CC1(C)OC(=O)c2cc(C(=CC=O)c3cc(Cl)c4c(c3)C(=O)OC(C)(C)O4)cc(Cl)c2O1	< 3.70	4.44	
CCCCCCCCCCCc1c(O)c(O)cc2nc3ccc(Sc4ccccc4)cc3nc12	< 4.82	5.34	
Cc1cc2ccccc2c[n+]1CC(=O)CC([O-])(C(F)(F)F)C(F)(F)F	< 3.70	4.02	
H-HSFNCGGEFFY-OH			inactive
CCOP(=O)(OCC)C(C)(CC)N/C(=N/C(NC(C)=O)(C(F)(F)F)C(F)(F)F)NC1=NC(C(F)(F)F)(C(F)(F)F)N=C(C(F)(F)F)O1 (centres undefined)	< 3.70	4.84	
O=C(NCCCCCCCCCCNC(=O)c1cc(O)c(O)c(O)c1)c1cc(O)c(O)c(O)c1	< 4.00	5.04	
COC(=O)C1(C)C=C(Nc2ccccc2)C(=O)N1c1ccccc1 (centres undefined)	< 5.21	< 5.21	
CC(=O)OCC1OC(OCC2OC(N3C(=S)N[C@H]([C@@H](O)[C@H](O)[C@H](O)CO)[C@H]3O)C(OC(C)=O)C(OC(C)=O)C2OC(C)=O)C(OC(C)=O)C(OC(C)=O)C1OC(C)=O (some centres undefined)	< 4.00	< 4.00	
Cn1c(N)c(N=Nc2ccc(S(=O)(=O)Nc3ncccn3)cc2)c(=O)n(C)c1=O	< 3.70	< 3.70	
O=C(CN(Cc1ccccc1)Cc1ccccc1)N1CCc2c([nH]c3ccccc23)C1c1cccnc1 (centres undefined)	< 5.25	< 5.25	
O=C(c1ccc(NCN2C(=O)CCC2=O)cc1)c1ccc(NCN2C(=O)CCC2=O)cc1	< 4.52	< 4.52	

Molecule	pEC50	pIC50	outcome
O=C1/C(=C/c2cccc(Br)c2)CSC/C1=C\c1cccc(Br)c1	< 3.70	5.54	
O=C(O)P(=O)(O)O	< 2.10	2.24	
Cc1ccc2nccc(/C=C/c3ccc(N(C)C)cc3)c2c1	< 4.88	5.61	
N.N.O=C([O-])P(=O)([O-])[O-].[Na+].[Pt+4]	< 2.38	3.81	
CC(=O)Oc1ccn2nc(C)c(Br)c2c1Br	< 3.70	4.44	
Nc1nc2c(=O)c3ccccc3sc2s1			inactive
COC(=O)/C=C/c1cnc2c(c1)oc(=O)n2CCc1ccccn1	< 3.70	4.62	
Cc1cc2c(cc1C)NC1=C(N2)OC(c2ccccc2C)C1=O (centres undefined)	< 4.09	< 4.09	
CCOc1ccc(N=Nc2ccc(/C=C/c3ccc(N=Nc4ccc(OCC)cc4)cc3S(=O)(=O)O)c(S(=O)(=O)O)c2)cc1	4.52	< 3.70 and 3.71	
O=C(O)CC(c1ccccc1)c1ccccc1	< 3.10	3.36	
c1ccc(SCN2CCN(CSc3ccccc3)CC2)cc1	< 4.52	5.24	
O=C(NC1C(=O)NC(CCc2ccccc2)NC1=O)OCc1ccccc1 (centres undefined)	< 3.70	< 3.70	
Cc1occc1C(=S)Nc1ccc(Cl)c(/C=N/OC(C)(C)C)c1	6.71	4.83	
c1cnc2c(c1)n[n+]1[n-]c3ccccc3n21	< 4.91	< 4.91	
COC(=O)[C@@H]1Cc2c3n(c4ccccc24)C(=O)CCC3N1C (some centres undefined)	< 3.38	3.53	
N#CC(c1ccccc1)N(CCc1ccccc1)C(=O)Oc1ccccc1 (centres undefined)	< 3.70	< 3.70	
S=C1Cc2[nH]c(=S)sc(=S)c2C(=S)N1	< 4.19	4.24	
Cc1[nH]c2c(C)c3c([nH]c4ccc(Cl)cc43)c(C)c2c(=O)c1C	< 4.77	5.01	
Nc1nc2c(C(=O)c3cccs3)nnn2c2cccc(Cl)c12	< 4.94	< 4.94	
CC(=N/NC(=S)N(C)C)/C(=N\NC(=S)N(C)C)c1ccccc1	< 3.70	5.44	
COc1ccc(C=C2C(=O)OC(C)(C)OC2=O)cc1	< 3.30	3.82	

Molecule	pEC50	pIC50	outcome
Cn1c(N)c(N=O)c(=O)n(C)c1=S	< 3.70	< 3.70	
CC1(C)CC(=O)C2=C(C1)C(c1ccccc1Cl)C1C(=O)CC(C)(C)CC1(O)O2 (centres undefined)	< 3.70	4.54	
CCOC(=O)C(O)(NC(=O)c1ccc(F)cc1)C(F)(F)F (centres undefined)	< 3.70	< 3.70	
Cc1ccnc2nc3[nH]c4ccccc4c3cc12	< 3.90	< 3.90	
C[C@H]1[C@H](C)Oc2c3c(c4c(CO)cc(=O)oc4c2[C@H]1O)OC(C)(C)C=C3	< 3.70	< 3.70	
COc1ccc2nc3cc(Cl)ccc3c(NCCC[N+](C)(C)CCCCCCCCCCCCCCCC[N+](C)(C)CCCNc3c4ccc(Cl)cc4nc4ccc(OC)cc34)c2c1			inactive
O=C1C(=Cc2cccc(O)c2)N=C(c2ccccc2)N1n1c(-c2ccccc2)nc2ccccc2c1=O	< 3.70	5.07	
CC(CCCOC(c1ccccc1)(c1ccccc1)c1ccccc1)OC(=O)Nc1ccccc1 (centres undefined)	< 4.54	< 4.54	
COc1c(CC(C)=O)ccc2c1C(=O)c1ccc(C=O)c(OC(C)=O)c1C2=O			inactive
O=C(OC(C(=O)O)C(OC(=O)c1ccccc1)C(=O)O)c1ccccc1 (centres undefined) (tested in a mixture with another compound)	< 3.42	6.04	
COC(=O)[C@]1(C)CCC[C@]2(C)c3cc(C(C)=O)c(C(C)C)cc3CC[C@@H]12	< 3.70	4.59	
CCOC(=O)/C=C/n1c2ccccc2c(=O)c2ccccc21	< 5.03	< 5.03	
Cn1ccnc1CCc1ccc(Cl)cc1Cl	< 3.15	4.15	
CC(=O)OC1COC(Nc2nc(N)n(C)c(=O)c2N=O)C(OC(C)=O)C1OC(C)=O (centres undefined)	< 3.70	< 3.70	
CCC1N2CCCCC2[C@@H]2c3[nH]c4ccccc4c3CCN12 (some centres undefined)	< 3.35	3.41	
COc1cc(C2SCC(=O)N2c2ccc(-n3c(-c4ccccc4)nc4ccccc4c3=O)cc2)ccc1O (centres undefined)	< 3.70	3.99	
N#C/C(=C/N1CCNC1=S)C(N)=O	< 3.70	< 3.70	
O=C(C=Nc1ccccc1C(=O)[O-])c1cccs1.O=C(C=Nc1ccccc1C(=O)[O-])c1cccs1.[Ni+2]			inactive
CSc1ncnc2c1ncn2C1CC(Oc2ccc(C)cc2)C(COc2ccc(C)cc2)O1 (centres undefined)	< 3.70	4.51	
CC(=O)OC1CC2CCC1(C)C2(C)C (centres undefined)	< 3.70	< 3.70	
COc1cc(-c2ccc(N=Nc3c(S(=O)(=O)O)cc4cc(S(=O)(=O)O)cc(N)c4c3O)c(OC)c2)ccc1N=Nc1c(S(=O)(=O)O)cc2cc(S(=O)(=O)O)cc(N)c2c1O			active

Molecule	pEC50	pIC50	outcome
CCCCCCCCCCCCCCCC(=O)OC1C(O)C(CO)OC(OC)C1NC(=O)N(CCCl)N=O (centres undefined)	< 4.90	< 4.90	
Cc1cc(N(CCC#N)CCC#N)ccc1/C=C1N=C(/C=C\c2ccccc2)OC\1=O	< 4.75	< 4.75	
Cc1cccc(NC2=NCCO2)c1Cl	< 3.70	3.98	
C=CCNC(=O)N(CCCC(NC(C)=O)C(=O)NCc1ccccc1)Cc1ccccc1 (centres undefined)	< 3.24	< 3.24	
CC(C)(C)OC(=O)N(CCCCNC(=O)OCc1ccccc1)CCCNC(=O)OCc1ccccc1	< 3.70	5.35	
CNC(=O)CCC(NC(C)=O)C(=O)NC(Cc1ccc(NC(=O)CCCCC(C)=O)cc1)C(=O)NC(CCC(=O)NC)C(=O)NC (centres undefined)	< 3.70	< 3.70	
S=C(Oc1ccccc1)SSC(=S)Oc1ccccc1	< 3.70	4.72	
CC(C)(C)c1ccc2c(c1)CNCCNCCNCc1cc(C(C)(C)C)ccc1OCC1(CO2)COc2ccc(C(C)(C)C)cc2CNCCNCCNCc2cc(C(C)(C)C)ccc2OC1	< 5.82	6.09	
CC(=O)O[C@H]1CCC2[C@@H]3CCC4Nc5c(cnn5-c5ccccc5)C[C@]4(C)C3CC[C@@]21C (some centres undefined)			inactive
COC1OC(OC)C2C(c3c(C)cc(C)cc3C)=NOC12 (centres undefined)	< 3.63	< 3.63	
O=S(=O)(/N=S(/Nc1ccccc1)C(F)(F)Cl)c1ccccc1 (centres undefined)	< 3.70	< 3.70	
COC(=O)C(C)(C)NC(=O)C(Cc1ccccc1)NC(=O)C(C)(C)NC(=O)OCc1ccccc1 (centres undefined) (Cbz-[Aib]-[ξF]-[Aib]-OMe)	3.71	3.13	
COC(=O)C(=O)C(C(=O)C(=O)Nc1ccccc1C(C)=O)c1nc2ccc(C(=O)c3ccccc3)cc2[nH]c1=O (centres undefined)	< 4.03	4.26	
COC(=O)C(NC(=O)C(CC(=O)OCc1ccccc1)NC(=O)OCc1ccccc1)C1CCCCC1 (centres undefined) (Cbz-Asp(OBn)-[Chg]-OMe; configuration not given here)	< 3.70	3.98	
CCOC(=O)C1=CN/C(=C(/C)C(=O)OC)SC1C(=O)OCC (centres undefined)	< 3.70	4.43	
C/C(Cl)=N\OC(=O)Nc1ccc(C)cc1	< 3.70	4.73	
CC(C)C(/C=C/c1ccc(Br)cc1)=N\NC(N)=O	< 4.49	< 4.49	
COc1c2c(cc3c1OCO3)C13C=CC(OC)CC1N(CC3)C2 (centres undefined)	< 3.70	< 3.70	
